{"source": "patent US20030187056A1", "about": "“Live cell procedures to identify to identify compounds modulating intracellular distribution of phosphodiesterase( pde) enzymes” (priority 2000, published 2003)", "key": {"HSPDE4A4-EGFP [1]": {"biological_target": "T1, HSPDE4A4-EGFP (Homo sapiens, UniProt P27815)", "T1 construct": "expressed in transfected cells", "T1 sequence (P27815 whole entry)": "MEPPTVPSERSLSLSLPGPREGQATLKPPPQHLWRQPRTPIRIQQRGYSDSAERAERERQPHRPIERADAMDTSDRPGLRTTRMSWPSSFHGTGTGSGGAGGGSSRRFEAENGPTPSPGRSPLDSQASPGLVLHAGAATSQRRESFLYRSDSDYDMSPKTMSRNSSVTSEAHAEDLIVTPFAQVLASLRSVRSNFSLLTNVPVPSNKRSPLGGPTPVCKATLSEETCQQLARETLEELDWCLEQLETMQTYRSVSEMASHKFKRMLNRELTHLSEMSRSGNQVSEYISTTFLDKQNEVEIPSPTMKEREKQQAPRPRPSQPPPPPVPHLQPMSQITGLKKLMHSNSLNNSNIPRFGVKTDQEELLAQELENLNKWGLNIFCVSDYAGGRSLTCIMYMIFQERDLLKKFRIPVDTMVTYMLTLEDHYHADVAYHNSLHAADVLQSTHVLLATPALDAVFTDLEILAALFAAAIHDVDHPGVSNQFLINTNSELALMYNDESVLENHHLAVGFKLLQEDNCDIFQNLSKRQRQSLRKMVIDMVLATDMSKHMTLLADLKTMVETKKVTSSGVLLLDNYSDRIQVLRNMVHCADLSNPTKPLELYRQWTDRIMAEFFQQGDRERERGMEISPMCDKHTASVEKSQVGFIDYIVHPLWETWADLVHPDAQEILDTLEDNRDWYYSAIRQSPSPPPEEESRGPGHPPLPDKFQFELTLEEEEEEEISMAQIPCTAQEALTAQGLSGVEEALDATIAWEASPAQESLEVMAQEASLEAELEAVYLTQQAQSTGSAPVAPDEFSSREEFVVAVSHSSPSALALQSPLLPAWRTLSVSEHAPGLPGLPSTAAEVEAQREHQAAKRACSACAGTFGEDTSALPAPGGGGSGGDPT", "assay": "Spot formation in CHO cells transfected with HSPDE4A4-EGFP", "assay_type": "cell-based", "conditions": "for cells with spots: clonal"}, "PDE4A probes": {"system": "PDE4A probes", "assay": "Redistribution of the PDE4A probes (summary)", "assay_type": "cell-based", "conditions": "compound alone"}, "HSPDE4A4-EGFP [2]": {"biological_target": "T1, HSPDE4A4-EGFP", "assay": "Dispersal of preformed Rolipram-induced spots, HSPDE4A4-EGFP CHO cells", "assay_type": "cell-based", "conditions": "yes/no"}, "[3]": {"conditions": "human, in vivo; cited from earlier work"}}}
{"smiles": "O=c1c2cccnc2n(-c2cccc([N+](=O)[O-])c2)c(=O)n1Cc1ccncc1", "note": "[RS25344]", "values": [{"measurement": "cells with spots", "setting": "HSPDE4A4-EGFP [1]; 0.03 μM RS25344, 24.5 hours", "value": "about 40%"}, {"measurement": "cells with spots", "setting": "HSPDE4A4-EGFP [1]; 0.03 μM RS25344, 24.5 hours, listed as RS 25344", "value": "approximately 40%"}, {"measurement": "cells with spots", "setting": "HSPDE4A4-EGFP [1]; 1 μM RS25344, 24.5 hours", "value": "more than 95%"}, {"measurement": "EC50", "setting": "HSPDE4A4-EGFP [1]; clonal CHO, 23.5 hours, 4-parameter Hill fit, read-out: EC50 spot formation (spots per cell)", "value": 17, "unit": "nM"}, {"measurement": "Formation of PDE4A4 spots", "setting": "HSPDE4A4-EGFP [1]; yes/no", "value": "yes"}, {"measurement": "redistribution of the PDE4A probes", "setting": "PDE4A probes", "value": "indistinguishable from those induced by Rolipram treatment"}, {"measurement": "Removal of Rolipram-induced PDE4A4-spots", "setting": "HSPDE4A4-EGFP [2]", "value": "no"}, {"measurement": "Clinical effect", "setting": "[3]", "value": "anti-"}, {"measurement": "Emesis", "setting": "[3]", "value": "yes"}]}
